Columns and labels:
[1] = Quantification of lentinan in serum after oral administration (Fungitec G test); type: in vivo; details: mice fed orally four times with 100 μg (total 400 μg) during 4 hr, serum 2 hr after last administration, mean ± SD
Description: Formulations of 400 μg of lentinan dissolved in PBS or associated with liposomes were delivered orally in four doses to fasted mice over a period of 4 hrs. The level of lentinan in blood serum was measured 2 hr after the delivery using the Fungitec G test (Seikagaku Co., Inc.), according to the manufacturer's protocol. Background activity was determined by analyzing lentinan levels in sera of control mice.
We first investigated whether lentinan dissolved in PBS or associated with liposomes would penetrate through the epithelial barrier of the gut. Mice were fed with four doses of liposome-associated or unencapsulated lentinan (total concentration of 400 μg) over a 4-hr period. The level of lentinan in blood serum was analyzed 2 hr after lentinan administration.

[2] = tested on: splenocytes stimulated with rgp160

Substance: Lentinan
- Serum concentration of lentinan ([1]; listed as Unencapsulated lentinan): 1,325 ± 1,241 pg/ml
- Serum concentration of lentinan ([1]; listed as unencapsulated lentinan): 1,325±1,241 pg/ml
- Toxic effect to the cells [2]: without any detectable toxic effect
- Env-specific IFN-γ level relative to stimulation with rgp160 in the absence of lentinan ([2]; lentinan 3 μg/ml to 100 μg/ml, 3 days, FIG. 3): ~2 fold
- Effect on env-specific IFN-γ production ([2]; lentinan higher than 100 μg/ml or lower than 3 μg/ml): smaller effect

From patent US7011845B2, “β-glucans encapsulated in liposomes” (MCP Hahnemann University, priority 2000, dated 2006)
